Earlier results as cited in patent US20250186525A1, “DECAFFEINATED YERBA MATE EXTRACT, ANTI-OBESITY COMPOSITION, DECAFFEINATION METHOD AND METHOD FOR THE PRODUCTION OF A YERBA MATE EXTRACT” (priority 2022, published 2025).

What was measured:
mice = details: isolated from a hot water extract of yerba mate
fat accumulation = details: cell and animal tests

| Structure (SMILES) | food intake (mice) | inhibitory effect on fat accumulation (fat accumulation) | gene expression of fatty acid synthase (fatty acid synthase) |
| --- | --- | --- | --- |
| O=C(/C=C/c1ccc(O)c(O)c1)O[C@@H]1CC(O)(C(=O)O)C[C@@H](OC(=O)/C=C/c2ccc(O)c(O)c2)C1O (stereo partly shown) [3,5-dicaffeoylquinic acid] | significantly reduces |  |  |
| Cn1c(=O)c2c(ncn2C)n(C)c1=O [caffeine] |  | showed an inhibitory effect | reduced |
| O=C(/C=C/c1ccc(O)c(O)c1)O[C@@H]1C[C@](O)(C(=O)O)C[C@@H](O)[C@H]1O [chlorogenic acid] | significantly reduces |  |  |
